From US7923004B2 (priority 2006, dated 2011)

Columns and labels:
[1] = system: replicon resistant to 10 μM Compound #64 vs wild type Huh-7 Luc-ubi-neo/ET replicon; assay: Cross resistance of Compound #64 resistant replicon; assay type: cell-based, HCV genotype 1b; details: for EC50 Resistant Replicon/EC50 Wild Type Replicon: replicon resistant to 10 μM Compound #64 vs wild type Huh-7 Luc-ubi-neo/ET replicon
[2] = Cell Titer-Glo Cell Viability Assay, genotype 1b cells; assay type: cell-based; details: human, Huh-Luc-Neo (HCV genotype 1b replicon) cells, HCV genotype 1b assays, read-out: Cytotoxicity* (CC50)
Protocol: Cell Seeding and Compound Treatment: Huh-Luc-Neo (Genotype 1b) or En5-3/Htat2ANeo (Genotype 1a) cells are seeded at 5000-7000/well in an opaque-walled 96 plate with Growth Medium (DMEM phenol red free+PS+2 mM glutamine; 100 ul/well). The compounds to be tested for inhibition of cell viability are added to the experimental wells so as to generate a dose response curve (8-9 concentrations, 10 μl/well at 10× assay concentration) and the cells are then incubated (5% CO2, 37° C.) for 72 h.
Reagent Preparation and Assay: After completion of the incubation period the cell viability measurements are made using the Cell Titre Glo Assay (Promega) according to the manufacturer's recommended protocol. Briefly, the CellTiter-Glo Buffer is thawed and equilibrated to room temperature prior to use. The lyophilized CellTiter-Glo Substrate is also equilibrated to room temperature prior to use. 10 ml of CellTiter-Glo Buffer is then transferred to 1 vial of CellTiter-Glo Substrate and mixed gently with a Vortex. 100 μl of CellTiter-Glo Assay reagent (CellTiter-Glo Buffer+CellTiter-Glo Substrate Mixture) is added to each well. The well contents are mixed for 5 min. on an orbital shaker at room temperature to induce cell lysis and the luminescence is then measured using a luminometer.

[3] = system: Compound #64 resistant HCV 1b replicon cell lines vs wild type Huh-Luc-Neo replicon; assay: EC50 determination (HCV RNA, quantitative PCR) in resistant vs wild type replicon clones; assay type: cell-based, HCV genotype 1b
Protocol: An HCV Replicon cell line (luc-neo/ET) and assay (Lohman et al, Science 1999, 285, 110) was used in the present invention. Specifically the HCV 1b Replicon cell line Huh-Luc-Neo was subjected to resistance selection by growth in culture in the presence of Compound #64 (Table 1) according to methods described by Mo et al., Antimicro. Agents Chemotherapy, 49, 4305-4314, 2005. Huh-Luc-Neo cells were initially subjected to selection with 0.5 μM Compound #64 (Table 1) and selection pressure was increased gradually up to 2 μM COMPOUND #64 (TABLE 1) over a period of 7 to 9 weeks and 5 cell lines derived from individual colonies were isolated and expanded. A specific clone resistant to 2 μM Compound #64 (Table 1) (Clone Comp.64-10R4) was the subjected to further selection pressure at increasing concentrations of Compound #64 (Table 1) and a replicon resistant to 10 μM Compound #64 (Table 1) was isolated (Clone Comp.64-50R4). The wild type Huh-Luc-Neo replicon cell line was cultured in parallel with the selections and characterized in a similar fashion to the resistant clones.
(§1) EC50 determinations were performed with Compound #64 (Table 1) vs. the wild type Huh-Luc-Neo replicon cell line and the 5 resistant replicon cell lines. Resistant and wild type replicons were plated in 96 well plates (5000-7000 cells/well) and treated with compound at varying concentrations (Compound #64 (Table 1)) for 72 hours. Cells were then lysed and RNA was isolated (Qiagen RNA Easy 96 kit) according to the manufacturer's recommendations. HCV RNA levels were then measured and EC50 values were determined by cDNA synthesis and quantitative PCR using HCV specific primers and GAPDH primers as controls (Example 55, Lohman et al, Science 1999, 285, 110). The effect of the compounds on inhibition of cell viability was performed on cells treated in parallel with using the Cell Titre Glo Assay Kit (Promega) according to the manufacturer's recommendations (Example 56). CC50s for the compound vs. the wild type and resistant replicons were determined to be >50 μM.

[4] = Cell Titre Glo cell viability on wild type and resistant replicons; assay type: cell-based; details: human
Protocol: as §1

[5] = system: HCV Genotype 1b luc-neo/ET replicon with Y2065H mutation in NS5A; assay: Luciferase EC50 in Huh7-Lunet cells with luc-neo/ET/Y2065H mutant vs parental luc-neo/ET replicon; assay type: cell-based; details: transient replicons, 72 h
Protocol: Resistance of Compound #64 (Table 1) and related pyrazoles was then determined by treating Huh7-Lunet cells (Koutsoudakis et al, J. Virol. 81(2):588-98, 2007) transiently electroporated with RNAs transcribed from either the luc-neo/ET/Y2065H mutant and the parental luc-neo/ET replicons (Blight et al, J. Virol. 77(5):3181-90, 2003). Huh7-Lunet expressing the luc-neo/ET/Y2065H mutant and the parental luc-neo/ET replicons were treated with selected compounds for 72 hours. EC50 and CC50 values were determined as described in the HCV Replicon Luciferase Assay and CellTiter-Glo Cell Viability Assay protocols. […] CC50s for the compound vs. the luc-neo/ETIY2065H mutant and parental luc-neo/ET replicons were determined to be>33 μM.

[6] = system: HCV genotype 1b replicon (Huh-Luc-Neo cells); assay: HCV Replicon RNA (Taqman) Assay, genotype 1b; assay type: cell-based; details: Hepatitis C virus, Huh-Luc-Neo cells, genotype 1b, HCV RNA, 72 h, read-out: HCV-1b Replicon Inhibition*, Taqman (EC50)
[7] = system: HCV genotype 1b replicon (Huh-Luc-Neo cells); assay: HCV Replicon Luciferase Assay; assay type: cell-based; details: Hepatitis C virus, Huh-Luc-Neo cells, genotype 1b, 72 h, read-out: HCV-1b Replicon Inhibition*, Luciferase (EC50)

Compound	EC50 Resistant Replicon/EC50 Wild Type Replicon [1]	CC50 at 72 h [2] [nM]	EC50 Luc-neo-ET-Y2065H/EC50 Luc-neo-ET [5]	EC50 [6] [nM]	EC50 [7] [nM]	further results
Cc1ccc(O)c(-c2nn(C)cc2C#Cc2ccc(NC(=O)[C@@H]3COCCN3C(=O)[C@H](NC(=O)OC(C)(C)C)c3ccccc3)cc2)c1	7.125	–	–	–	–	cross resistance in Compound #64 resistant replicon ([1]; replicon resistant to 10 μM Compound #64): cross resistant
Cc1ccc(O)c(-c2nn(C)cc2C#Cc2ccc(NC(=O)[C@H]3CCCCN3C(=O)C(NC(=O)OC(C)(C)C)c3ccccc3)cc2)c1 (stereo partly drawn) [64 (Table 1)]	–	> 100000	>65	< 1000	< 1000	EC50 shift, resistant replicon vs wild type replicon ([3]; replicon resistant to 10 μM Compound #64, second NS5A mutation Y2065H): > 75 fold; EC50 Resistant Replicon/EC50 Wild Type Replicon ([3]; resistant clone Comp. 64-10R3, resistant conc. 2 μM): 1.5; EC50 Resistant Replicon/EC50 Wild Type Replicon ([3]; resistant clone Comp. 64-10R4, resistant conc. 2 μM): 3.48; EC50 Resistant Replicon/EC50 Wild Type Replicon ([3]; resistant clone Comp. 64-10R5, resistant conc. 2 μM): 2.92; EC50 Resistant Replicon/EC50 Wild Type Replicon ([3]; resistant clone Comp. 64-10R6, resistant conc. 2 μM): 2.18; EC50 Resistant Replicon/EC50 Wild Type Replicon ([3]; resistant clone Comp. 64-10R8, resistant conc. 2 μM): 3; EC50 Resistant Replicon/EC50 Wild Type Replicon ([3]; resistant clone Comp. 64-50R4, resistant conc. 10 μM): >75; CC50 at 72 h [4]: > 50000 nM
COc1ccc2c(O[C@@H]3C[C@H]4C(=O)N[C@]5(C(=O)O)C[C@H]5/C=C\CCCCC[C@H](NC(=O)OC5CCCC5)C(=O)N4C3)cc(-c3csc(NC(C)C)n3)nc2c1 [BILN 2061, reference compound]	0.656	–	–	–	–	–
Cc1ccc(O)c(-c2nn(C)cc2C#Cc2ccc(NC(=O)[C@@H]3COCCN3C(=O)[C@H](NC(=O)OC(C)(C)C)c3ccccc3)cc2)c1 [Compound 23A]	–	> 100000	6	–	–	EC50 ([6]; GETYPE1B): < 1000 nM; EC50 ([7]; GETYPE1B): < 1000 nM
Cn1cc(C#Cc2ccc(NC(=O)[C@@H]3COCCN3C(=O)[C@H](NC(=O)C3CC3)c3ccccc3)cc2)c(-c2cc(Cl)ccc2O)n1 [Compound 52]	–	10000 to 100000	79	< 1000	< 1000	–
Cn1cc(C#Cc2ccc(NC(=O)[C@@H]3COCCN3C(=O)[C@H](NC(=O)NC(C)(C)C)c3ccccc3)cc2)c(-c2cc(Cl)ccc2O)n1 [Compound 53]	–	10000 to 100000	71	< 1000	< 1000	–
